Experiments:
Assay type in all cases: in vivo
[1] = single-rising dose (SRD) first-in-human study, safety evaluation
Protocol: (§1) Four clinical studies including a single-rising dose (SRD) first-in-human study, a single-dose positron emission tomography (PET) target occupancy study, a multiple-rising dose (MRD) study, and a single-dose relative bioavailability (BA) and food-effect study were conducted.

CH24H = biological target: T1, CH24H (Homo sapiens, UniProt Q9Y6A2); assay: single-dose positron emission tomography (PET) target occupancy study
T1 construct: single-dose positron emission tomography (PET) target occupancy study; from tissue; host or cells: brain of study participants, in vivo (brain is inferred from the statement that CH24H is expressed in neurons)
T1 sequence (Q9Y6A2 whole entry): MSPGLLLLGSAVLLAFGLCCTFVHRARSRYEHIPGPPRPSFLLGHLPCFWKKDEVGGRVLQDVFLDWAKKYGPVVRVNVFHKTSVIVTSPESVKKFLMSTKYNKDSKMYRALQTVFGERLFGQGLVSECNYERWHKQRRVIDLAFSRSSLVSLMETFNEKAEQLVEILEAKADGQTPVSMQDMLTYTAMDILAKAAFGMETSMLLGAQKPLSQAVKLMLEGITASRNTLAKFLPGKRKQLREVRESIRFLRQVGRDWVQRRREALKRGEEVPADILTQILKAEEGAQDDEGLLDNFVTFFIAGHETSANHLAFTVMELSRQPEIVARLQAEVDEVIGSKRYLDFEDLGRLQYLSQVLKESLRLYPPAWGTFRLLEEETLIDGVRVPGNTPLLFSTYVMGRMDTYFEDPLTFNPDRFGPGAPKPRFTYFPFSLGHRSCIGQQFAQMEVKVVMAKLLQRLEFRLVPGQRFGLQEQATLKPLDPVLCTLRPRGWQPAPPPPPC
Protocol: as §1
The pharmacokinetics (PK) and pharmacodynamics (PD) of (4-benzyl-4-hydroxypiperidin-1-yl) (2,4′-bipyridin-3-yl)methanone were characterized in these studies.

Scn1a+/−mice = assay: spontaneous seizures in Scn1a+/− mouse model of Dravet syndrome; conditions: chow containing 0.02% (w/w) for 2 weeks, started at 17-18 days after birth; control group 23.9%
Protocol: The following Example provides data from a heterozygous deletion of a Scn1a mouse model (Scn1a+/−mice) of Dravet syndrome, a developmental epileptic encephalopathy subtype. Myoclonic and generalized tonic-clonic seizures are observed, which correlate to symptoms in humans. Therefore, (4-benzyl-4-hydroxypiperidin-1-yl) (2,4′-bipyridin-3-yl)methanone was tested in Scn1a+/−mice for its potential effects on seizure. At 17-18 days after birth, mice were weaned and started on treatment either with control chow or chow containing (4-benzyl-4-hydroxypiperidin-1-yl) (2,4′-bipyridin-3-yl)methanone 0.02% (w/w) for 2 weeks. Spontaneous seizures were continuously monitored. The seizure free rate during the study period for the control group was 23.9%.

O=C(c1cccnc1-c1ccncc1)N1CCC(O)(Cc2ccccc2)CC1 [(4-benzyl-4-hydroxypiperidin-1-yl) (2,4′-bipyridin-3-yl)methanone]
serious pretreatment events or post treatment adverse events ([1]; all cohorts, 15-1350 mg single oral dose): No serious pretreatment events or post treatment adverse events were reported
safety and tolerability ([1]; doses up to 1350 mg single dose, healthy male and female subjects): generally safe and well tolerated
plasma 24HC concentrations (CH24H): dose-dependent decreases
PET occupancy measurements (CH24H; correlated with circulating levels of 24HC): dose- and time-dependent
seizure free rate during the study period (Scn1a+/−mice): 91.7%

Reference: patent US11285139B2, “Treatment of CNS conditions” (Takeda Pharmaceutical Company Limited, priority 2017, dated 2022)
